# Measurements reported in patent publication US20230364033A1, “COMPOUNDS FOR TREATING VIRUS INFECTIONS” (Meletios Therapeutics, priority 2020, published 2023).
# Like-named read-outs stand apart in the source and are kept apart here.
# Tests used:
# human α-coronavirus 229E = test: Viral inhibition (CPE / cell viability readout) in 16HBE cells infected by α-coronavirus 229E; format: cell-based; settings: for EC50: 120 h, read-out: EC50 (concentration which results in 50% viral inhibition)
# Method: The EC50 and CC50 of SR-31747 were determined in an in vitro model of infection by human α-coronavirus 229E.
# Briefly, a dilution series of SR-31747 (8-point, half-log dose titration, 30 μM-10 nM) was added to 16HBE cells. Vehicle and positive control (remdesivir, 8-point, half-log dose titration, 20 μM-6.4 nM) wells were set up to control for any influence of the compounds alone on cell viability. Cells were visually inspected for the appearance of any cytopathic effects (CPE). A cell viability assay was performed once CPE was complete.
# The readouts were: • EC50: The concentration which results in 50% viral inhibition, following the addition of compounds; • CC50: The concentration which results in 50% cell viability, following the addition of compounds; • Selectivity index: Calculated as CC50/EC50.
# Protocol: • 1. 16HBE cells permissible to infection by α-coronavirus 229E were grown and seeded into 96-well plates to a confluency of 80-90%. • 2. The compounds SR-31747 and remdesivir (positive control) were serially diluted half-log into 8 concentrations in total and added to cells for 1 hour at 37° C. • 3. After 1 hour, α-coronavirus 229E was added at 100xTCID50. A mock infection of blank media was added to the uninfected controls. • 4. After infection, the virus/compound was removed and an overlay medium was added, with equivalent concentrations of the compounds. • 5. […] Once CPE was observed, supernatants were taken and stored at −80° C. • 7. A cell viability assay was then performed on all conditions, with cells receiving the treatment compared to the vehicle treated and uninfected controls. Calculations are as follows:
# % viral inhibition=[(A-B)/(C-B)] x100, where: • A: mean optical density of test, B: mean optical density of virus controls, C: mean optical density of cell controls. • Negative values occur when A<B, due either to natural variation or compound toxicity.
# in vitro = settings: human
# SARS-CoV-2 [1] = test: SARS-CoV-2-infected golden hamster model of COVID-19; format: in vivo; settings: infected hamsters
# Source text: SR-31747 was used freshly diluted in a diluent consisting of […], 5% ethanol and 5% tween-80.
# 24 male hamsters RjHan:AURA SPF were acclimated during 7 days and distributed in 4 groups of 6 hamsters each: • Group 1: Infected by SARS-CoV-2 and treated by SR-31747 • Group 2: Infected by SARS-CoV-2 and treated by diluent (negative control) • Group 3: Non-infected and treated by SR-31747 • Group 4: Non-infected and treated by diluent
# On day 0, hamsters were infected intranasally by SARS-CoV-2 and received a first intraperitoneal injection of SR-31747 at 40 mg/kg.
# On days 1, 2 and 3 the hamsters received an intraperitoneal injection of SR-31747 at 40 mg/kg. On day 4 sera and lungs from the hamsters were sampled.
# From day 0 of day 4, the body temperature of the hamsters was measured at both flanks using a touchless infrared thermometer and a cumulative clinical score was determined (ruffled fur (no=0 or yes=1), slow movements (no=0, yes=1), apathy (no=0, yes=1), absence of rearing/exploration (no=0, yes=1)).
# An olfactory test was conducted on day 3 preceded by a day of fasting. Briefly, cereals were buried in the litter of an individual cage and the latency to find the hidden cereals by the hamsters was measured.
# SARS-CoV-2 [2] = test: microbe, parasite or virus in culture; format: cell-based; settings: Severe acute respiratory syndrome coronavirus 2; A549-ACE2 cells, MOI 0,1, 72 hours, viral replication inhibition; read-out: RTqPCR: IC50
Structure (SMILES),EC50 (human α-coronavirus 229E; 16HBE) [µM],CC50 (in vitro) [µM],"Cumulative clinical score (SARS-CoV-2 [1]; 40 mg/kg intraperitoneal days 0-3, day 4, p=0,009 Mann-Whitney test)","Olfactory test: latency to find hidden cereals (SARS-CoV-2 [1]; 40 mg/kg intraperitoneal, day 3)","Lung weight (SARS-CoV-2 [1]; 40 mg/kg intraperitoneal, day 4, increase due to infection)","Body temperature (SARS-CoV-2 [1]; 40 mg/kg intraperitoneal, days 2 and 4)",IC50 (SARS-CoV-2 [2]) [µM],"EC50 (human α-coronavirus 229E; 16HBE cells, α-coronavirus 229E at 100xTCID50, about 5 days) [µM]","Selectivity index (CC50/EC50) (human α-coronavirus 229E; α-coronavirus 229E, 16HBE cells)"
"CCC(CC)COC(=O)[C@H](C)N[P@](=O)(OC[C@H]1O[C@@](C#N)(c2ccc3c(N)ncnn23)[C@H](O)[C@@H]1O)Oc1ccccc1 [Remdesivir, remdesivir, reference compound]",0.34,> 20,–,–,–,–,–,–,–
"CCN(C/C=C\c1ccc(C2CCCCC2)c(Cl)c1)C1CCCCC1 [SR-31747, N-[(Z)-3-(3-chloro-4-cyclohexylphenyl)prop-2-enyl]-N-ethylcyclohexanamine]",–,–,significantly reduces,alleviates the olfactory dysfunction,significantly alleviated,significantly increases,2.88,1.36,5
